Laboratory results published in patent publication US11350582B2, “Plant varieties by application of endocides” (Stephen F. Austin State University, priority 2015, dated 2022).
Like-named read-outs stand apart in the source and are kept apart here.

How the values were obtained:
S. molesta = test: Phytotoxic analysis by pipet application on upper or lower leaf surface; type: in vivo, Salvinia molesta; details: for activity on upper or lower leaf surface applications: 1% solution, 72 hrs; for pest or weed control at 1 %: Salvinia molesta, topical, 72 h
Method: General Experimental Procedure: 4-Hydroxybenzoic and 3,4-dihydroxybenzoic acids and 14 of their analogs were purchased commercially. Each of 16 compounds were prepared as 5 mL experimental solutions with NANOPURE™ water at 1% concentration. A total of 102 healthy and untreated living type III plants of S. molesta (approximately 10 g in fresh weight each) were cultured and tested in 17 plastic containers (23×23 cm, 2.37 L) with six plants in each container in a greenhouse (30° C. during the day time and 20° C. at night). The first container served as the controls without any treatment, the plants in each of the other 16 containers were treated by one of the 16 testing compounds, respectively. The plants in each container were randomly classified into two groups evenly. For each plant in the first group, 10 μL of 1% experimental solution was applied by pipet on the upper surface of each blade of the six pairs of large floating leaves close to the terminal bud. For each plant in the second group, 10 μL of 1% experimental solution was applied by pipet on the lower surface of each blade of the six pairs of large floating leaves close to the terminal bud. The leaf surfaces were examined for damage and analyzed 72 hrs after the treatments.

Salvinia molesta = test: Greenhouse spray test on giant salvinia, living biomass; type: in vivo; details: 10 mL spray on three type III plants per container, day nine
Method: General Experimental Procedure: Observations of giant salvinia growth in a greenhouse were performed under 28 different treatment conditions and control conditions with NANOPURE™ water or 0.5% DYNE-AMIC® (methyl esters of C16-C18 fatty acids, polyalkyleneoxide modified polydimethylsiloxane, and alkylphenol ethoxylate 99%, (Helena, Collierville, Tenn., United States)) (v:v).
Materials—4-hydroxybenzoic acid (>95%, HPLC analysis) and 3,4-dihydroxybenzoic acid (>95%) were isolated from S. molesta matter using the method as described in (Li, Wang et al. 2013). Ethylparaben (>99%) was purchased from a commercial source. Each of 4-hydroxybenzoic acid, 3,4-dihydroxybenzoic acid, and ethylparaben were prepared as 50 mL experimental solutions with NANOPURE™ water at the concentration of 0.5, 1.0, 1.5, and 2.0%, respectively. 0.5, 1.0, 1.5, and 2.0% 4-hydroxybenzoic acid, 3,4-dihydroxybenzoic acid, and ethylparaben with 0.5% surfactant DYNE-AMIC® was also prepared as 50 mL experimental solutions with NANOPURE™ water. Mixtures of 4-hydroxybenzoic acid with 3,4-dihydroxybenzoic acid (2:1, w:w) were prepared as 50 mL experimental solutions with NANOPURE™ water at the total concentration of 0.5, 1.0, and 1.5%, respectively. 3,4-dihydroxybenzoic acid was mixed with ethylparaben (2:1, w:w) and prepared as 50 mL experimental solution with NANOPURE™ water at the total concentration of 0.5, 1.0, and 1.5%, respectively.
Bioassay—For each treatment, a total of nine healthy and untreated living plants of S. molesta (type III, the biomass of three plants weighs approximately 10 g) were cultured in tap water in three plastic containers severing as three replications (14×15 cm, 0.68 L) with three plants each in a greenhouse (30° C. during the day time and 20° C. at night). The three plants in each of the three containers per treatment were sprayed with 10 mL NANOPURE™ water, 0.5% DYNE-AMIC®, or the experimental solution. Plant growth and survival status were documented and photographed in each treatment on day nine after the treatment. Pairwise comparisons for all treatments (including Control) in living biomass were made using Tukey test at alpha=0.05, which was done using SAS (SAS 9.4).

[1] = 10 μL of 1% solution per blade, lower surface, read-out: Inhibition (%) Lower leaf Application
[2] = 10 μL of 1% solution per blade, upper surface, read-out: Inhibition (%) Upper leaf Application
[3] = read-out: Inhibition (%) Lower leaf Application, 10 μL of 1% solution per blade, lower surface
[4] = read-out: Inhibition (%) Upper leaf Application, 10 μL of 1% solution per blade, upper surface

Row | Compound | pest or weed control at 1 % (S. molesta; [1]) | pest or weed control at 1 % (S. molesta; [2]) | further results
1 | O=C(O)c1cccnc1 [Nicotinic acid] | 0% | 0% | activity on upper or lower leaf surface applications (S. molesta): did not show any activities
2 | O=C(O)c1c(O)cccc1O [2,6-Dihydroxybenzoic acid] | 25% | 44.4% | 
3 | O=C(O)c1ccc(O)cc1O [2,4-Dihydroxybenzoic acid] | 72.2% | > 85% | 
4 | O=C(O)c1cccc(O)c1 [3-Hydroxybenzoic acid] | 66.7% | 36.1% | 
5 | O=C(O)c1c(O)cc(O)cc1O [2,4,6-Trihydroxybenzoic acid] | 11.1% | 0% | activity on upper or lower leaf surface applications (S. molesta): did not show any activities
6 | O=C(O)COc1ccccc1 [Phenoxyacetic acid] |  |  | pest or weed control at 1 % (S. molesta; [3]): 16.7%; pest or weed control at 1 % (S. molesta; [4]): 77.8%
7 | CCOC(=O)c1ccc(O)cc1 [Ethylparaben, reference compound] |  |  | Living Biomass (mean ± s.d.) (Salvinia molesta; total concentration 0.5%): 18.6 g; Living Biomass (mean ± s.d.) (Salvinia molesta; total concentration 1.0%): 18.7 g; Living Biomass (mean ± s.d.) (Salvinia molesta; total concentration 1.5%): 12.9 g; Living Biomass (mean ± s.d.) (Salvinia molesta; total concentration 2.0%): 13.5 g
8 | O=C(O)c1ccncc1 [Isonicotinic acid] | 33.3% | 44.5% | 
9 | O=C(O)c1ccc(O)c(O)c1O [2,3,4-Trihydroxybenzoic acid] | 11.1% | 44.5% | 
10 | O=C(O)c1cccc(O)c1O [2,3-Dihydroxybenzoic acid] | 100% | > 85% | 
11 | O=C(O)c1cc(O)c(O)c(O)c1 [3,4,5-Trihydroxybenzoic acid] | 0% | 0% | activity on upper or lower leaf surface applications (S. molesta): did not show any activities
12 | O=C(O)c1cc(O)ccc1O [2,5-Dihydroxybenzoic acid] | 11.1% | 52.8% | 
13 | O=C(O)c1cc(O)cc(O)c1 [3,5-Dihydroxybenzoic acid] | 0% | 0% | activity on upper or lower leaf surface applications (S. molesta): did not show any activities
14 | O=C(O)c1ccccc1O [2-Hydroxybenzoic acid] | 100% | > 85% | 
15 | O=C(O)c1ccccc1 [Benzoic acid] |  |  | pest or weed control at 1 % (S. molesta; [3]): 100%; pest or weed control at 1 % (S. molesta; [4]): > 85%
